# Reference: patent US12077503B2, “Substituted cyclic amides and their use as herbicides” (FMC CORPORATION, priority 2015, dated 2024)
# Columns and labels:
# Test in all cases: Test C preemergence
# Format in all cases: in vivo
# [1] = system: pigweed (Amaranthus retroflexus); settings: for Plant response rating, Pigweed: scale 0 to 100, 0 no effect, 100 complete control
# How it was run: (§1)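 Herbicidal effect, applied preemergence to sown seeds or postemergence to 1- to 4-leaf plants, was scored visually 13 to 15 d after application, 0 to 100 versus controls.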
# [2] = system: wheat (winter wheat, Triticum aestivum); settings: for Plant response rating, Wheat: scale 0 to 100, 0 no effect, 100 complete control
# How it was run: as §1
# [3] = system: Galium (catchweed bedstraw, Galium aparine); settings: for Plant response rating, Galium: scale 0 to 100, 0 no effect, 100 complete control
# How it was run: as §1
# [4] = system: lambsquarters (Chenopodium album); settings: for Plant response rating, Lambsquarters: scale 0 to 100, 0 no effect, 100 complete control
# How it was run: as §1
# [5] = system: nutsedge, yellow (yellow nutsedge, Cyperus esculentus); settings: for Plant response rating, Nutsedge, Yellow: scale 0 to 100, 0 no effect, 100 complete control
# How it was run: as §1
# [6] = system: velvetleaf (Abutilon theophrasti); settings: for Plant response rating, Velvetleaf: scale 0 to 100, 0 no effect, 100 complete control
# How it was run: as §1
# [7] = system: johnsongrass (Sorghum halepense); settings: for Plant response rating, Johnsongrass: scale 0 to 100, 0 no effect, 100 complete control
# How it was run: as §1
# [8] = system: blackgrass (Alopecurus myosuroides); settings: for Plant response rating, Blackgrass: scale 0 to 100, 0 no effect, 100 complete control
# How it was run: as §1
# [9] = system: morningglory (Ipomoea coccinea); settings: for Plant response rating, Morningglory: scale 0 to 100, 0 no effect, 100 complete control
# How it was run: as §1
# [10] = system: ryegrass, Italian (Italian ryegrass, Lolium multiflorum); settings: for Plant response rating, Ryegrass, Italian: scale 0 to 100, 0 no effect, 100 complete control
# How it was run: as §1
# [11] = system: oilseed rape (Brassica napus); settings: for Plant response rating, Oilseed Rape: scale 0 to 100, 0 no effect, 100 complete control
# How it was run: as §1
# [12] = system: barnyardgrass (Echinochloa crus-galli); settings: for Plant response rating, Barnyardgrass: scale 0 to 100, 0 no effect, 100 complete control
# How it was run: as §1
# [13] = system: foxtail, giant (giant foxtail, Setaria faberii); settings: for Plant response rating, Foxtail, Giant: scale 0 to 100, 0 no effect, 100 complete control
# How it was run: as §1
# corn (Zea mays) = settings: for Plant response rating, Corn: scale 0 to 100, 0 no effect, 100 complete control
# How it was run: as §1
# soybean (Glycine max) = settings: for Plant response rating, Soybean: scale 0 to 100, 0 no effect, 100 complete control
# How it was run: as §1
# [14] = system: ragweed (common ragweed, Ambrosia elatior); settings: for Plant response rating, Ragweed: scale 0 to 100, 0 no effect, 100 complete control
# How it was run: as §1
# [15] = system: crabgrass, large (large crabgrass, Digitaria sanguinalis); settings: for Plant response rating, Crabgrass, Large: scale 0 to 100, 0 no effect, 100 complete control
# How it was run: as §1
# [16] = 31 g ai/ha, 0 is no effect, 100 is complete control
structure (smiles),measurement,setting,value
O=C1NCC(c2ccc(I)cc2)C1C(=O)Nc1cccc(F)c1F (racemic) [Compound 700],"Plant response rating (scale of 0 to 100), Pigweed",[1]; [16],0
same,"Plant response rating, Pigweed",[1]; 62 g ai/ha,15
same,"Plant response rating, Pigweed",[1]; 125 g ai/ha,50
same,"Plant response rating, Pigweed",[1]; 250 g ai/ha,65
same,"Plant response rating (scale of 0 to 100), Wheat",[2]; [16],0
same,"Plant response rating, Wheat",[2]; 62 g ai/ha,0
same,"Plant response rating, Wheat",[2]; 125 g ai/ha,0
same,"Plant response rating, Wheat",[2]; 250 g ai/ha,70
same,"Plant response rating (scale of 0 to 100), Galium",[3]; [16],0
same,"Plant response rating, Galium",[3]; 62 g ai/ha,0
same,"Plant response rating, Galium",[3]; 125 g ai/ha,50
same,"Plant response rating, Galium",[3]; 250 g ai/ha,40
same,"Plant response rating (scale of 0 to 100), Lambsquarters",[4]; [16],0
same,"Plant response rating, Lambsquarters",[4]; 62 g ai/ha,25
same,"Plant response rating, Lambsquarters",[4]; 125 g ai/ha,80
same,"Plant response rating, Lambsquarters",[4]; 250 g ai/ha,85
same,"Plant response rating (scale of 0 to 100), Nutsedge, Yellow",[5]; [16],0
same,"Plant response rating, Nutsedge, Yellow",[5]; 62 g ai/ha,0
same,"Plant response rating, Nutsedge, Yellow",[5]; 125 g ai/ha,0
same,"Plant response rating, Nutsedge, Yellow",[5]; 250 g ai/ha,0
same,"Plant response rating (scale of 0 to 100), Velvetleaf",[6]; [16],0
same,"Plant response rating, Velvetleaf",[6]; 62 g ai/ha,0
same,"Plant response rating, Velvetleaf",[6]; 125 g ai/ha,20
same,"Plant response rating, Velvetleaf",[6]; 250 g ai/ha,40
same,"Plant response rating (scale of 0 to 100), Johnsongrass",[7]; [16],100
same,"Plant response rating, Johnsongrass",[7]; 62 g ai/ha,0
same,"Plant response rating, Johnsongrass",[7]; 125 g ai/ha,10
same,"Plant response rating, Johnsongrass",[7]; 250 g ai/ha,60
same,"Plant response rating (scale of 0 to 100), Blackgrass",[8]; [16],20
same,"Plant response rating, Blackgrass",[8]; 62 g ai/ha,55
same,"Plant response rating, Blackgrass",[8]; 125 g ai/ha,60
same,"Plant response rating, Blackgrass",[8]; 250 g ai/ha,85
same,"Plant response rating (scale of 0 to 100), Morningglory",[9]; [16],0
same,"Plant response rating, Morningglory",[9]; 62 g ai/ha,0
same,"Plant response rating, Morningglory",[9]; 125 g ai/ha,0
same,"Plant response rating, Morningglory",[9]; 250 g ai/ha,0
same,"Plant response rating (scale of 0 to 100), Ryegrass, Italian",[10]; [16],0
same,"Plant response rating, Ryegrass, Italian",[10]; 62 g ai/ha,20
same,"Plant response rating, Ryegrass, Italian",[10]; 125 g ai/ha,35
same,"Plant response rating, Ryegrass, Italian",[10]; 250 g ai/ha,45
same,"Plant response rating (scale of 0 to 100), Oilseed Rape",[11]; [16],0
same,"Plant response rating, Oilseed Rape",[11]; 62 g ai/ha,30
same,"Plant response rating, Oilseed Rape",[11]; 125 g ai/ha,60
same,"Plant response rating, Oilseed Rape",[11]; 250 g ai/ha,50
same,"Plant response rating (scale of 0 to 100), Barnyardgrass",[12]; [16],75
same,"Plant response rating, Barnyardgrass",[12]; 62 g ai/ha,85
same,"Plant response rating, Barnyardgrass",[12]; 125 g ai/ha,90
same,"Plant response rating, Barnyardgrass",[12]; 250 g ai/ha,95
same,"Plant response rating (scale of 0 to 100), Foxtail, Giant",[13]; [16],80
same,"Plant response rating, Foxtail, Giant",[13]; 62 g ai/ha,85
same,"Plant response rating, Foxtail, Giant",[13]; 125 g ai/ha,90
same,"Plant response rating, Foxtail, Giant",[13]; 250 g ai/ha,90
same,"Plant response rating (scale of 0 to 100), Corn",corn (Zea mays); [16],0
same,"Plant response rating, Corn",corn (Zea mays); 62 g ai/ha,0
same,"Plant response rating, Corn",corn (Zea mays); 125 g ai/ha,10
same,"Plant response rating, Corn",corn (Zea mays); 250 g ai/ha,50
same,"Plant response rating (scale of 0 to 100), Soybean",soybean (Glycine max); [16],100
same,"Plant response rating, Soybean",soybean (Glycine max); 62 g ai/ha,0
same,"Plant response rating, Soybean",soybean (Glycine max); 125 g ai/ha,15
same,"Plant response rating, Soybean",soybean (Glycine max); 250 g ai/ha,0
same,"Plant response rating (scale of 0 to 100), Ragweed",[14]; [16],10
same,"Plant response rating, Ragweed",[14]; 62 g ai/ha,50
same,"Plant response rating, Ragweed",[14]; 125 g ai/ha,75
same,"Plant response rating, Ragweed",[14]; 250 g ai/ha,75
same,"Plant response rating (scale of 0 to 100), Crabgrass, Large",[15]; [16],95
same,"Plant response rating, Crabgrass, Large",[15]; 62 g ai/ha,95
same,"Plant response rating, Crabgrass, Large",[15]; 125 g ai/ha,95
same,"Plant response rating, Crabgrass, Large",[15]; 250 g ai/ha,98
